Measurements taken from article PMC4890880 (ACS infectious diseases, 2016).

Experiments:
[1] = tested on: Plasmodium berghei (Pb-Luc) exoerythrocytic-stage parasites; conditions: for PbLuc_max_inhibition (%) / IC50: 2nd round; for PbLuc_max_inhibition (%): maximal inhibition in dose series; for normalized signal at 0.000508053 (first series): concentration 0.000508053, first replicate series; for normalized signal at 0.000508053 (first series) / normalized signal at 0.000508053 (second series) / normalized signal at 0.00152416 (first series) / normalized signal at 0.00152416 (second series) / normalized signal at 0.00457247 (first series) / normalized signal at 0.00457247 (second series) / normalized signal at 0.0137174 (first series) / normalized signal at 0.0137174 (second series) / normalized signal at 0.0411523 (first series) / normalized signal at 0.0411523 (second series) / normalized signal at 0.123457 (first series) / normalized signal at 0.123457 (second series) / normalized signal at 0.37037 (first series) / normalized signal at 0.37037 (second series) / normalized signal at 1.11111 (first series) / normalized signal at 1.11111 (second series) / normalized signal at 3.33333 (first series) / normalized signal at 3.33333 (second series) / normalized signal at 10 (first series) / normalized signal at 10 (second series): fraction of control; for normalized signal at 0.000508053 (second series): concentration 0.000508053, second replicate series; for normalized signal at 0.00152416 (first series): concentration 0.00152416, first replicate series; for normalized signal at 0.00152416 (second series): concentration 0.00152416, second replicate series; for normalized signal at 0.00457247 (first series): concentration 0.00457247, first replicate series; for normalized signal at 0.00457247 (second series): concentration 0.00457247, second replicate series; for normalized signal at 0.0137174 (first series): concentration 0.0137174, first replicate series; for normalized signal at 0.0137174 (second series): concentration 0.0137174, second replicate series; for normalized signal at 0.0411523 (first series): concentration 0.0411523, first replicate series; for normalized signal at 0.0411523 (second series): concentration 0.0411523, second replicate series; for normalized signal at 0.123457 (first series): concentration 0.123457, first replicate series; for normalized signal at 0.123457 (second series): concentration 0.123457, second replicate series; for normalized signal at 0.37037 (first series): concentration 0.37037, first replicate series; for normalized signal at 0.37037 (second series): concentration 0.37037, second replicate series; for normalized signal at 1.11111 (first series): concentration 1.11111, first replicate series; for normalized signal at 1.11111 (second series): concentration 1.11111, second replicate series; for normalized signal at 3.33333 (first series): concentration 3.33333, first replicate series; for normalized signal at 3.33333 (second series): concentration 3.33333, second replicate series; for normalized signal at 10 (first series): concentration 10, first replicate series; for normalized signal at 10 (second series): concentration 10, second replicate series; for IC50: read-out: PbLuc_IC50, Broad DOS compounds, unit not printed (dose series head 10 to 0.000508053)
HepG2-A16-CD81EGFP cells = conditions: 2nd round; for Tox_max_inhibition (%): maximal inhibition in dose series; for IC50: read-out: Tox_IC50, HepG2 cytotoxicity, unit inferred

Structure (SMILES)	PbLuc_max_inhibition (%) [1] [%]	normalized signal at 0.000508053 (first series) [1]	normalized signal at 0.000508053 (second series) [1]	normalized signal at 0.00152416 (first series) [1]	normalized signal at 0.00152416 (second series) [1]	normalized signal at 0.00457247 (first series) [1]	normalized signal at 0.00457247 (second series) [1]	normalized signal at 0.0137174 (first series) [1]	normalized signal at 0.0137174 (second series) [1]	normalized signal at 0.0411523 (first series) [1]	normalized signal at 0.0411523 (second series) [1]	normalized signal at 0.123457 (first series) [1]	normalized signal at 0.123457 (second series) [1]	normalized signal at 0.37037 (first series) [1]	normalized signal at 0.37037 (second series) [1]	normalized signal at 1.11111 (first series) [1]	normalized signal at 1.11111 (second series) [1]	normalized signal at 3.33333 (first series) [1]	normalized signal at 3.33333 (second series) [1]	normalized signal at 10 (first series) [1]	also measured
COc1ccc(NC(=O)N(C)C[C@H]2Oc3c(NC(=O)CCCCCC(=O)Nc4ccccc4N)cccc3C(=O)N([C@H](C)CO)C[C@H]2C)cc1 [BRD-K75018854-001-01-2]	27	1.05	0.8619	0.9022	0.7297	1.1676	0.8627	0.9808	0.929	1.1704	0.8231	1.053	1.0322	0.9438	0.8176	0.9278	0.8826	1.001	1.022	0.9917	normalized signal at 10 (second series) [1]: 1.205; IC50 [1]: > 10 µM; Tox_max_inhibition (%) (HepG2-A16-CD81EGFP cells): 8%; IC50 (HepG2-A16-CD81EGFP cells): > 10 µM
C/C=C/c1ccc([C@H]2[C@@H](CO)N(CC3CCCCC3)[C@@H]2CNC(C)C)cc1 [BRD-K19633528-001-01-3]	58	1	0.834	0.9222	0.7558	0.9507	1.046	0.9718	0.826	1.123	1.151	1.141	0.8556	1.177	1.086	1.183	0.9808	1.3301	0.9519	0.5856	normalized signal at 10 (second series) [1]: 0.4223; IC50 [1]: > 10 µM; Tox_max_inhibition (%) (HepG2-A16-CD81EGFP cells): 16%; IC50 (HepG2-A16-CD81EGFP cells): > 10 µM
